# pEC50, pKi: −log10 of the molar value. Where two headings read alike, the source gives them in different places. Positions of bridges follow the written chain, without caps; N, C: chain ends. Non-standard residues stand in square brackets, D forms with d. Residues, ends and D or L forms follow the SMILES beside them. Ser(ΨH,HPro) = O=C(O)[C@@H]1COCN1; hCit = NC(=O)NCCCC[C@H](N)C(=O)O; Thz = O=C(O)[C@@H]1CSCN1
# Columns and labels:
# human MC4R [1] = molecular target: T1, human MC4R (Homo sapiens, UniProt P32245); experiment: Functional cAMP assay (CisBio HTRF) in BHK cells expressing human MC4R; type: cell-based; conditions: for MC1R/MC4R cAMP EC50 ratio: MC1R cAMP EC50 divided by MC4R cAMP EC50
# T1 construct: expressed in transfected cells
# T1 sequence (P32245 whole entry): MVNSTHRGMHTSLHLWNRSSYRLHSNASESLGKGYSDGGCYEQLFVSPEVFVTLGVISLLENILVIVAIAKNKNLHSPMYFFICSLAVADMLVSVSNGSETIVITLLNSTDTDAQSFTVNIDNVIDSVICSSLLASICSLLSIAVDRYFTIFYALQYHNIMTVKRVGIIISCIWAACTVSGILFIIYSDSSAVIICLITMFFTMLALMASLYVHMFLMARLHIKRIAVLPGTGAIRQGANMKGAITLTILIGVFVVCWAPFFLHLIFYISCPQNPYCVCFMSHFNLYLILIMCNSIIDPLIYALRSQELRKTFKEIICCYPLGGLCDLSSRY
# In short: (§1)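 Compound working solutions, 10-fold dilutions from 2 μM at twice final strength, in buffer containing 1 mM IBMX, were incubated 30 min at 25 °C with BHK cells stably carrying human MC4R or MC1R. Accumulated cAMP was then detected by competitive HTRF after 1 h at 25 °C and fitted by non-linear regression.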
# human MC4R [2] = molecular target: T1, human MC4R; experiment: 125NDP-α-MSH competitive binding to membranes of BHK cells expressing human MC4 receptor (filtration assay)
# In short: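 Displacement of ^125NDP-α-MSH (apx. […] final) was measured by filtration after 2 h at 25 °C, using diluted membranes of stably transfected BHK cells in pH 7.0 HEPES buffer. Compounds spanned 1 μM to 0.001 nM; binding curves were analysed by non-linear regression.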
# human MC1R = molecular target: T2, human MC1R (Homo sapiens, UniProt Q01726); experiment: Functional cAMP assay (CisBio HTRF) in BHK cells expressing human MC1R; type: cell-based
# T2 construct: expressed in transfected cells
# T2 sequence (Q01726 whole entry): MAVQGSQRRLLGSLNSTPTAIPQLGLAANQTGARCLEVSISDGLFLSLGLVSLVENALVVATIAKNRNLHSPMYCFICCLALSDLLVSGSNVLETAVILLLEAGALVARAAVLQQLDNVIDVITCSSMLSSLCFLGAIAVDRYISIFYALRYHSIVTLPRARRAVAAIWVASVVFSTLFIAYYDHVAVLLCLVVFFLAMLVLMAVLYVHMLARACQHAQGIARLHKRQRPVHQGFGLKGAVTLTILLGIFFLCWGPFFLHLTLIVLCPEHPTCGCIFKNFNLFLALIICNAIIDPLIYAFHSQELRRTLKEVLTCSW
# In short: as §1
# [3] = BHK cells expressing human MC4R, '>' = highest dose used with no response, read-out: MC4R cAMP EC50
# [4] = human MC4R, BHK cell membranes, 125NDP-α-MSH radioligand, read-out: MC4R binding Ki
# [5] = BHK cells expressing human MC1R, '>' = highest dose used with no response, read-out: MC1R cAMP EC50
Structure (SMILES),pEC50 (human MC4R [1]; [3]),MC1R/MC4R cAMP EC50 ratio (human MC4R [1]),pKi (human MC4R [2]; [4]),pEC50 (human MC1R; [5]),pEC50 (human MC4R [1]),pKi (human MC4R [2]),pEC50 (human MC1R)
"C[C@@H]1NC(=O)[C@@H]2CSSC[C@H](NC(=O)[C@H](CCCNC(=N)N)NC(=O)[C@H](CCCCN)NC(=O)[C@H](CCCCN)NC(=O)[C@H](CCCCN)NC1=O)C(=O)N[C@H](C)C(=O)N[C@@H](Cc1c[nH]cn1)C(=O)N[C@H](Cc1ccccc1)C(=O)N[C@@H](CCCNC(=N)N)C(=O)N[C@@H](Cc1c[nH]c3ccccc13)C(=O)N2 [Chem. 85, c[c[Cys-D-Ala-His-D-Phe-Arg-Trp- Cys]-Ala-Lys-Lys-Lys-Arg]] (cyclo(AKKKRC[dA]H[dF]RWC); disulfide 6-12)",11.00,22,10.70,9.66,–,–,–
"C[C@@H]1NC(=O)[C@H](C)NC(=O)[C@H](C)NC(=O)[C@@H]2CSSC[C@H](NC(=O)[C@H](Cc3c[nH]c4ccccc34)NC(=O)[C@H](C)NC1=O)C(=O)N[C@@H](C)C(=O)N[C@@H](Cc1c[nH]cn1)C(=O)N[C@H](Cc1ccccc1)C(=O)N[C@@H](CCCNC(=N)N)C(=O)N[C@@H](Cc1c[nH]c3ccccc13)C(=O)N2 [Chem. 87, c[c[Cys-Ala-His-D-Phe-Arg-Trp-Cys]- Ala-Ala-Ala-Ala-Trp]] (cyclo(AAAAWCAH[dF]RWC); disulfide 6-12)",–,35,–,–,10.40,9.77,8.86
"C[C@@H]1NC(=O)[C@H](C)NC(=O)[C@@H]2CSSC[C@H](NC(=O)[C@H](Cc3c[nH]c4ccccc34)NC(=O)[C@H](C)NC(=O)[C@@H](C)NC1=O)C(=O)N[C@@H](C)C(=O)N[C@@H](Cc1c[nH]cn1)C(=O)N[C@H](Cc1ccccc1)C(=O)N[C@@H](CCCNC(=N)N)C(=O)N[C@@H](Cc1c[nH]c3ccccc13)C(=O)N2 [Chem. 88, c[c[Cys-Ala-His-D-Phe-Arg-Trp-Cys]- Ala-Ala-D-Ala-Ala-Trp]] (cyclo(AA[dA]AWCAH[dF]RWC); disulfide 6-12)",–,66,–,–,10.70,9.70,8.88
"C[C@@H]1NC(=O)[C@H](C)NC(=O)[C@H](C)NC(=O)[C@@H]2CSSC[C@H](NC(=O)[C@H](CCCNC(=N)N)NC(=O)[C@H](C)NC1=O)C(=O)N[C@@H](C)C(=O)N[C@@H](Cc1c[nH]cn1)C(=O)N[C@H](Cc1ccccc1)C(=O)N[C@@H](CCCNC(=N)N)C(=O)N[C@@H](Cc1c[nH]c3ccccc13)C(=O)N2 [Chem. 89, c[c[Cys-Ala-His-D-Phe-Arg-Trp-Cys]- Ala-Ala-Ala-Ala-Arg]] (cyclo(AAAARCAH[dF]RWC); disulfide 6-12)",–,30,–,–,10.70,10.15,9.23
"C[C@@H]1NC(=O)[C@H](C)NC(=O)[C@@H]2CSSC[C@H](NC(=O)[C@H](CCCNC(=N)N)NC(=O)[C@H](C)NC(=O)[C@@H](C)NC1=O)C(=O)N[C@@H](C)C(=O)N[C@@H](Cc1c[nH]cn1)C(=O)N[C@H](Cc1ccccc1)C(=O)N[C@@H](CCCNC(=N)N)C(=O)N[C@@H](Cc1c[nH]c3ccccc13)C(=O)N2 [Chem. 90, c[c[Cys-Ala-His-D-Phe-Arg-Trp-Cys]- Ala-Ala-D-Ala-Ala-Arg]] (cyclo(AA[dA]ARCAH[dF]RWC); disulfide 6-12)",–,65,–,–,11.00,9.96,9.19
"C[C@@H]1NC(=O)[C@@H]2CSSC[C@H](NC(=O)[C@H](Cc3c[nH]c4ccccc34)NC(=O)[C@H](CCCCN)NC(=O)[C@H](CCCCN)NC(=O)[C@H](CCCCN)NC1=O)C(=O)N1CCC[C@@H]1C(=O)N[C@@H](Cc1c[nH]cn1)C(=O)N[C@H](Cc1ccccc1)C(=O)N[C@@H](Cc1c[nH]cn1)C(=O)N[C@@H](Cc1c[nH]c3ccccc13)C(=O)N2 [Chem. 98, c[c[Cys-D-Pro-His-D-Phe-His-Trp- Cys]-Ala-Lys-Lys-Lys-Trp]] (cyclo(AKKKWC[dP]H[dF]HWC); disulfide 6-12)",–,>20,9.22,< 7.26,–,–,–
"C[C@@H]1NC(=O)[C@@H]2CSSC[C@H](NC(=O)[C@H](CCCNC(=N)N)NC(=O)[C@H](CCCCN)NC(=O)[C@H](CCCCN)NC(=O)[C@H](CCCCN)NC1=O)C(=O)N1CCC[C@H]1C(=O)N[C@@H](Cc1c[nH]cn1)C(=O)N[C@H](Cc1ccccc1)C(=O)N[C@@H](CCCCNC(N)=O)C(=O)N[C@@H](Cc1c[nH]c3ccccc13)C(=O)N2 [Chem. 99, c[c[Cys-Pro-His-D-Phe-Cit-Trp-Cys]- Ala-Lys-Lys-Lys-Arg]] (cyclo(AKKKRCPH[dF][hCit]WC); disulfide 6-12)",9.41,14,10.00,8.28,–,–,–
"C[C@@H]1NC(=O)[C@@H]2CSSC[C@H](NC(=O)[C@H](Cc3c[nH]c4ccccc34)NC(=O)[C@H](CCCNC(=N)N)NC(=O)[C@@H](Cc3ccccc3)NC(=O)[C@H](Cc3c[nH]cn3)NC1=O)C(=O)N[C@@H](CCCCN)C(=O)N[C@@H](CCCCN)C(=O)N[C@@H](CCCCN)C(=O)N[C@@H](CCCNC(=N)N)C(=O)N2 [Chem. 101, c[c[Cys-Ala-His-D-Phe-Arg-Trp-Cys]- Lys-Lys-Lys-Arg]] (cyclo(AH[dF]RWCKKKRC); disulfide 6-11)",10.40,5,10.30,9.72,–,–,–
"C[C@@H]1NC(=O)[C@H](CCC(=O)O)NC(=O)[C@H](CCC(=O)O)NC(=O)[C@H](C)NC(=O)[C@@H]2CSSC[C@H](NC(=O)[C@H](Cc3c[nH]c4ccccc34)NC1=O)C(=O)N[C@@H](C)C(=O)N[C@@H](Cc1c[nH]cn1)C(=O)N[C@H](Cc1ccccc1)C(=O)N[C@@H](CCCNC(=N)N)C(=O)N[C@@H](Cc1c[nH]c3ccccc13)C(=O)N2 [Chem. 102, c[c[Cys-Ala-His-D-Phe-Arg-Trp-Cys]- Ala-Glu-Glu-Ala-Trp]] (cyclo(AEEAWCAH[dF]RWC); disulfide 6-12)",–,29,–,–,9.31,8.00,7.84
"C[C@@H]1NC(=O)[C@@H]2CSSC[C@H](NC(=O)[C@H](Cc3c[nH]c4ccccc34)NC(=O)[C@H](CCCCN)NC(=O)[C@H](CCCCN)NC(=O)[C@H](CCCCN)NC1=O)C(=O)N1COC[C@H]1C(=O)N[C@@H](Cc1c[nH]cn1)C(=O)N[C@H](Cc1ccccc1)C(=O)N[C@@H](Cc1c[nH]cn1)C(=O)N[C@@H](Cc1c[nH]c3ccccc13)C(=O)N2 [Chem. 103, c[c[Cys-OXA-His-D-Phe-His-Trp- Cys]-Ala-Lys-Lys-Lys-Trp]] (cyclo(AKKKWC[Ser(ΨH,HPro)]H[dF]HWC); disulfide 6-12)",10.30,>1400,10.22,< 7.15,–,–,–
"C[C@@H]1NC(=O)[C@H](C)NC(=O)[C@@H]2CSSC[C@H](NC(=O)[C@H](Cc3c[nH]c4ccccc34)NC(=O)[C@H](C)NC(=O)[C@H](CCCCN)NC1=O)C(=O)N1CSC[C@H]1C(=O)N[C@@H](Cc1c[nH]cn1)C(=O)N[C@H](Cc1ccccc1)C(=O)N[C@@H](Cc1c[nH]cn1)C(=O)N[C@@H](Cc1c[nH]c3ccccc13)C(=O)N2 [Chem. 109, c[c[Cys-THAZ-His-D-Phe-His-Trp- Cys]-Ala-Ala-Lys-Ala-Trp]] (cyclo(AAKAWC[Thz]H[dF]HWC); disulfide 6-12)",–,>47,–,–,9.82,9.52,< 8.15

# Source: patent publication US20200223889A1, “Bicyclic Compounds Capable of Binding to Melanocortin 4 Receptor” (Novo Nordisk A/S, priority 2017, published 2020)
